The test system of one data set is L. major promastigotes. The experiment in a line: Leishmania promastigote assay (3H-thymidine).
For data set [1], the system named is Bacteroides fragilis, Clostridium perfringens, Clostridium difficele. The format is cell-based. To be noted: single concentration of compound (100 μM).
Data set [2] is described as follows: Determination of solubility in phosphate buffer pH 7.4. The format is physicochemical. Conditions: aqueous buffer at pH 7.4. The method, then: Solubility of the compounds was determined by preparing a saturated solution of compound in 0.3 M phosphate buffer (pH 7.4±0.3) in a brown glass tube. The suspensions were rotated slowly for 24 hours. Aliquots were centrifuged for 10 minutes at 14.000 rpm and supernatants were diluted in 40% (v/v) acetonitrile in water prior to HPLC analysis. Concentrations of analytes were quantified against a standard curve and used as term of solubility.
The HPLC-UV method used for the assessment of solubility is the same as used in the in vitro metabolism assay.

For data set [3], the system named is Streptococcus pneumoniae #998 (clinical isolate). Description: MIC determination in broth microdilution assay. In general terms: Dilution methods test growth across graded concentrations, often in twofold steps.
A further data set concerns Eschericia coli ESS. The experiment in a line: MIC determination in broth microdilution assay. Conditions: H: Eschericia coli ESS; NA: no activity.
In data set [4] the test system is Staphylococcus aureus ATCC29213. The experiment in a line: MIC determination in broth microdilution assay.
Data set [5] deals with Staphylococcus aureus ATCC33591 (resistant to methicillin). The experiment in a line: MIC determination in broth microdilution assay.
The test system of data set [6] is Enterococcus faecium #17501 (vancomycin-resistant clinical isolate). The experiment in a line: MIC determination in broth microdilution assay.
Data set [7] concerns Enterococcus faecalis ATCC29212. The experiment in a line: MIC determination in broth microdilution assay.
In data set [8] the test system is Staphylococcus intermedius #2357 (clinical isolate). Description: MIC determination in broth microdilution assay.
The nature of data set [9]: Determination of metabolic stability (liver microsomes). The format is in vitro ADME, Wistar rat. Conditions: rat liver microsomes, 20 μM, 15 min at 37° C. How it is done:
incubations were performed with Wistar rat liver microsomes (0.25 mg/ml) in 2% sodium bicarbonate solution. NADP (0.13 mg/ml), glucose-6-phosphate (0.63 mg/ml) and glucose-6-phosophate dehydrogenase (0.38 units/ml) were used as NADPH generation system and UDPGA (0.48 mg/ml) was added to include the phase II reaction, glucuronic acid conjugation, in the assay. After 5 minutes of pre-incubation the reaction was started by addition of the test article to give a final concentration of 20 μM. Samples were incubated for 15 min at 37° C. and the reactions were terminated by addition of equal volumes of acetonitrile. Blank incubations were performed at the same concentration but without addition of microsomes. Both blank and microsome-containing samples were made in replicats of three. Prior to analysis samples were centrifuged for 10 min. at 3500 rpm, HPLC system:
Initial conditions were 40% mobile phase A (acetonitrile) and 60% mobile phase B (10 mM ammonium acetate pH 9.5). During the first 20 minutes, the mobile phase was changed via a linear gradient to 90% A and 10% B. This was followed by a 5 minutes linear gradient to initial conditions, which were maintained for 5 min. The flow rate was 0.20 ml/min and injection volume 10 μl.
A general note: Microsomes from liver hold many membrane-bound enzymes, among them those of drug oxidation.

The mark [10] stands for this setting: F: Streptococcus pneumoniae #998, NA: no activity.
Where [11] appears, read: A: Staphylococcus aureus ATCC29213, NA: no activity.
Where [12] appears, read: B: Staphylococcus aureus ATCC33591 (resistant to methicillin), NA: no activity.
Setting [13] is: E: Enterococcus faecium #17501 (vancomycin-resistant), NA: no activity.
The mark [14] stands for this setting: D: Enterococcus faecalis ATCC29212, NA: no activity.
Setting [15] is: C: Staphylococcus intermedius #2357, NA: no activity.

Molecules are shown by their SMILES. ≈ marks a conversion by molar mass, not a printed value.

As to `CN(C)CCNc1ccc(C(=O)/C=C/c2ccc(Cl)cc2Cl)cc1` [B022, (E)-3-(2,4-Dichloro-phenyl)-1-[4-(2-dimethylamino-ethylamino)-phenyl]-propenone], the IC50 in the data set with L. major promastigotes (L. major) is 800 nM. Besides, in data set [1], the “activity against anaerobic bacteria” value is reported as “activity against all microorganisms within the test panel”.
As to `COc1ccc(/C=C/C(=O)c2ccccc2N(C)CCN(C)C)cc1` [B023, (E)-1-{2-[(2-Dimethylamino-ethyl)-methyl-amino]-phenyl}-3-(4-methoxy-phenyl)-propenone], in data set [2], the Solubility turned out to be 30600 µg/mL (≈ 90.4 mM).
As to `CCCCN(CCCC)c1cccc(/C=C/C(=O)c2ccccc2NCCCN(C)C)c1` [B033, (E)-3-(3-Dibutylamino-phenyl)-1-[2-(3-dimethylamino-propylamino)-phenyl]-propenone], the “activity against anaerobic bacteria” value in [1] was “activity against all microorganisms within the test panel”.
As for `CCCN(CCC)c1cccc(/C=C/C(=O)c2ccccc2NCCN(C)C)c1` [B035, (E)-1-[2-(2-Dimethylamino-ethylamino)-phenyl]-3-(3-dipropylamino-phenyl)-propenone], in data set [1], the “activity against anaerobic bacteria” value is recorded as “activity against all microorganisms within the test panel”.
Same read-out and setting: under `CCCCN(CCCC)c1ccc(OC)c(/C=C/C(=O)c2ccccc2NCCN(C)C)c1` [B038, (E)-3-(5-Dibutylamino-2-methoxy-phenyl)-1-[2-(2-dimethylamino-ethylamino)-phenyl]-propenone] stands “activity against all microorganisms within the test panel”.
`CN(C)CCNc1cccc(C(=O)/C=C/c2ccc(Cl)cc2Cl)c1` [B039, (E)-3-(2,4-Dichloro-phenyl)-1-[3-(2-dimethylamino-ethylamino)-phenyl]-40 propenone] registered an IC50 in the data set on L. major promastigotes (L. major) of 1000 nM. Further, the “activity against anaerobic bacteria” value in data set [1] was “activity against all microorganisms within the test panel”.
In the case of `CN(C)CCNc1ccc(C(=O)/C=C/c2cc(C(F)(F)F)cc(C(F)(F)F)c2)cc1` [B046, (E)-3-(3,5-Bis-trifluoromethyl-phenyl)-1-[4-(2-dimethylamino-ethylamino)-phenyl]-propenone], the “activity against anaerobic bacteria” value in data set [1] is given as “activity against all microorganisms within the test panel”.
For `COc1cc(/C=C/C(=O)c2cccc(N(C)CCN(C)C)c2)cc(OC)c1` [B047, (E)-3-(3,5-Dimethoxy-phenyl)-1-{3-[(2-dimethylamino-ethyl)-methyl-amino]-phenyl}-propenone], the “times more potent than LicA” value in the data set on L. major promastigotes (Leishmania Major, dose-response curve FIG. 7) is given as 10.
In data set [2], `COc1ccccc1C(=O)/C=C/c1ccccc1N(C)CCN(C)C` [B056, (E)-3-{2-[(2-Dimethylamino-ethyl)-methyl-amino]-phenyl}-1-(2-methoxy-phenyl)-propenone] registered a Solubility of 3200 µg/mL (≈ 9.45 mM).
On to `CCCCc1ccc(/C=C/C(=O)c2ccc(N(C)CCN(C)C)cc2)cc1` [B060, (E)-3-(4-Butyl-phenyl)-1-{4-[(2-dimethylamino-ethyl)-methyl-amino]-phenyl}-propenone], for which the “activity against anaerobic bacteria” value in [1] is given as “activity against all microorganisms within the test panel”.
`CN(C)CCNc1ccc(C(=O)/C=C/c2ccc3ccccc3n2)cc1` [B067, (E)-1-[4-(2-Dimethylamino-ethylamino)-phenyl]-3-quinolin-2-yl-propenone] had a 50% inhibitory concentration (IC50) in the data set on L. major promastigotes (L. major) of 900 nM. In other words, the sub-micromolar range.
In the case of `COc1ccc(-c2ccccc2)cc1/C=C/C(=O)c1ccc(N(C)CCN(C)C)cc1` [B073, (E)-1-{4-[(2-Dimethylamino-ethyl)-methyl-amino]-phenyl}-3-(4-methoxy-biphenyl-3-yl)-propenone], the “activity against anaerobic bacteria” value in [1] was “activity against all microorganisms within the test panel”.
In the case of `COc1ccc(C(=O)/C=C/c2cc(-c3ccccc3OC)ccc2N2CCN(C)CC2)c(F)c1` [B083, (E)-1-(2-Fluoro-4-methoxy-phenyl)-3-[2′-methoxy-4-(4-methyl-piperazin-1-yl)-biphenyl-3-yl]-propenone], the MIC in data set [3] (setting [10]) turned out to be 37.5 µM (≈ 17.3 µg/mL); against Eschericia coli ESS, 9.4 µM (≈ 4.33 µg/mL); in data set [4] (setting [11]), 4.7 µM (≈ 2.16 µg/mL); in data set [5] (setting [12]) it was 9.4 µM (≈ 4.33 µg/mL); in data set [6] (setting [13]), 9.4 µM (≈ 4.33 µg/mL); in data set [7] (setting [14]), 18.8 µM (≈ 8.66 µg/mL). Besides, the MIC in data set [8] (setting [15]) was 9.4 µM (≈ 4.33 µg/mL). Moreover, the IC50 in the data set on L. major promastigotes (L. major) worked out at 500 nM.
Take `CCCCN(CCCC)c1ccc(/C=C/C(=O)c2cccc(NC(=O)CN(C)C)c2)cc1` [B089, (E)-N-{3-[3-(4-Dibutylamino-phenyl)-acryloyl]-phenyl}-2-dimethylamino-acetamide]: the MIC was determined as 37.5 µM (≈ 16.3 µg/mL) in data set [3] (Streptococcus pneumoniae); 4.7 µM (≈ 2.05 µg/mL) in data set [4] (Staphylococcus aureus, ATCC29213); 4.7 µM (≈ 2.05 µg/mL) in [5] (Staphylococcus aureus, ATCC33591); 9.4 µM (≈ 4.09 µg/mL) in data set [6] (Enterococcus faecium); 9.4 µM (≈ 4.09 µg/mL) in data set [7] (Enterococcus faecalis, ATCC29212); 4.7 µM (≈ 2.05 µg/mL) in data set [8] (Staphylococcus intermedius).
With `COc1ccccc1-c1ccc(/C=C/C(=O)c2ccccc2CN(C)C)c(N2CCN(C)CC2)c1` [B096, (E)-1-(2-Dimethylaminomethyl-phenyl)-3-[2′-methoxy-3-(4-methyl-piperazin-1-yl)-biphenyl-4-yl]-propenone], in the data set with L. major promastigotes (L. major), inhibition was half-maximal at 1200 nM (IC50).
Consider `Cc1cc(C)cc(-c2ccc(N(C)CCN(C)C)c(/C=C/C(=O)c3cccc(NCCN(C)C)c3)c2)c1` [B113, (E)-1-[3-(2-Dimethylamino-ethylamino)-phenyl]-3-{4-[(2-dimethylamino-ethyl)-methyl-amino]-3′,5′-dimethyl-biphenyl-3-yl}-propenone], for which the “Metabolic turn-over in vitro” value in data set [9] is recorded as 4%.
Consider `COc1ccc(C(=O)/C=C/c2cc(-c3cc(C)cc(C)c3)ccc2N(C)CCN(C)C)c(CN(C)C)c1` [B114, (E)-3-{4-[(2-Dimethylamino-ethyl)-methyl-amino]-3′,5′-dimethyl-biphenyl-3-yl}-1-(2-dimethylaminomethyl-4-methoxy-phenyl)-propenone], for which, in [2], the Solubility is 4300 µg/mL (≈ 8.61 mM).
Regarding `CN(C)Cc1ccccc1C(=O)/C=C/c1cc(N2CCN(C)CC2)ccc1Br` [B124, (E)-3-[2-Bromo-5-(4-methyl-piperazin-1-yl)-phenyl]-1-(2-dimethylaminomethyl-phenyl)-propenone], in [2], the Solubility came out at 2000 µg/mL (≈ 4.52 mM).
On the same count and under the same terms, under `CN(C)CCCNc1cc(Br)cc(/C=C/C(=O)c2ccccc2CN(C)C)c1` [B126, (E)-3-[3-Bromo-5-(3-dimethylamino-propylamino)-phenyl]-1-(2-dimethylaminomethyl-phenyl)-propenone] stands 8300 µg/mL (≈ 18.7 mM).
Turning to `COc1ccc(C(=O)/C=C/c2cc(-c3cc(C)cc(C)c3)ccc2N2CCN(C)CC2)c(F)c1` [B182, (E)-3-[3′,5′-Dimethyl-4-(4-methyl-piperazin-1-yl)-biphenyl-3-yl]-1-(2-fluoro-4-methoxy-phenyl)-propenone], the minimal inhibitory concentration (MIC) in data set [3] (setting [10]) came out at 18.8 µM (≈ 8.62 µg/mL); in the data set with Eschericia coli ESS, 75 µM (≈ 34.4 µg/mL); in data set [4] (setting [11]), 4.7 µM (≈ 2.16 µg/mL); in [5] (setting [12]), 4.7 µM (≈ 2.16 µg/mL); in data set [6] (setting [13]), 4.7 µM (≈ 2.16 µg/mL); in data set [7] (setting [14]), 9.4 µM (≈ 4.31 µg/mL). In data set [8] (setting [15]), this compound yielded an MIC of 4.7 µM (≈ 2.16 µg/mL). In data set [9], the “Metabolic turn-over in vitro” value stood at 2%.
`COc1ccccc1-c1ccc(N2CCN(C)CC2)c(/C=C/C(=O)c2ccccc2NS(=O)(=O)c2ccccc2)c1` [B185, (E)-N-(2-{3-[2′-Methoxy-4-(4-methyl-piperazin-1-yl)-biphenyl-3-yl]-acryloyl}-phenyl)-benzenesulfonamide] showed a half-maximal inhibitory concentration (IC50) with L. major promastigotes (Leishmania major) of 200 nM. For the same compound, the “Metabolic turn-over in vitro” value in [9] is reported as 0%.
Regarding `COc1ccccc1-c1ccc(/C=C/C(=O)c2ccccc2CN(C)CCN(C)C)c(N2CCN(C)CC2)c1` [B216, (E)-1-(2-{[(2-Dimethylamino-ethyl)-methyl-amino]-methyl}-phenyl)-3-[2′-methoxy-3-(4-methyl-piperazin-1-yl)-biphenyl-4-yl]-propenone], in [9], the “Metabolic turn-over in vitro” value is given as 6%.

The term IC50 denotes the concentration needed to halve the response being measured. Low values mean inhibition by little substance, high ones a need for much substance. Usually Solubility stands for the dissolved amount per volume that the medium holds. Lower therefore signals little dissolved substance. One may read the MIC as the smallest concentration in the dilution series that meets the test's criterion for growth inhibition. Low values mean a more susceptible organism, high ones a less susceptible organism.

(Values after patent publication US7642367B2, “Diamino-functional chalcones” (Lica Pharmaceuticals A/S, priority 2002, dated 2010).)
